This is an account of results in ChEMBL document CHEMBL4431295 (Medchemcomm, 2016).

A value given as a limit tells only on which side of the number the result lay.

In general, IC50 refers to the concentration at which inhibition is half-maximal.

Test [1] deals with MGC-803. Put plainly: Antiproliferative activity against human MGC803 cells after 72 hrs by MTT assay. It is filed as functional, cell-based. Particulars: MGC-803, 72 h.
The subject of test [2] is SK-N-SH. Put plainly: Antiproliferative activity against human SK-N-SH cells after 72 hrs by MTT assay. It is filed as functional, cell-based.
Test [3] concerns HepG2. Put plainly: Antiproliferative activity against human HepG2 cells after 72 hrs by MTT assay. It is filed as functional, cell-based. Particulars: HepG2, 72 h. A general note: Tetrazolium dyes change colour on reduction, which living cells bring about.
Test [4] relates to GES1. Put plainly: Cytotoxicity against human GES-1 cells assessed as cell growth inhibition after 72 hrs by MTT assay. The test is classed as cell-based. Particulars: GES1, 72 h.

Turning to `O=C(/C=C/c1ccco1)c1ccc(NCc2cn(Cc3ccccc3)nn2)cc1`, the IC50 is 37.3 µM in test [1], 39.2 µM in test [2] and 42.5 µM in test [3].
Regarding `O=C(/C=C/c1cccnc1)c1ccc(NCc2cn(Cc3ccc(Cl)cc3)nn2)cc1`, the results for the IC50 in test [1], in test [2] and in test [3] were 7.03 µM, 4.36 µM and 9.32 µM, respectively.
Turning to `O=C(/C=C/c1cccs1)c1ccc(NCc2cn(Cc3ccc(Cl)cc3)nn2)cc1`, the IC50 in test [1] was found to be 29.6 µM; in test [2], 30.9 µM; in test [3], 39.2 µM.
Turning to `O=c1[nH]cc(F)c(=O)[nH]1` [FLUOROURACIL], the concentration for half-maximal inhibition (IC50) in test [4] is 7.22 µM; in test [1], 7.22 µM; in test [2] it was 10.3 µM; in test [3], 10.3 µM.
Turning to `O=C(/C=C/c1cccnc1)c1ccc(OCc2cn(Cc3ccccc3)nn2)cc1`, the IC50 in test [1] came to 10.2 µM; in test [2] it was 6.37 µM; in test [3] it was 5.22 µM.
For `O=C(/C=C/c1cc(Cl)cc(Cl)c1)c1ccc(NCc2cn(Cc3ccccc3)nn2)cc1`, in that order: 16.8 µM, 20.5 µM and 23.4 µM.
The corresponding values for `Nc1ccc(C(=O)/C=C/c2ccc(Cl)cc2)cc1` are 61.2 µM, 58.2 µM and 55.6 µM.
The corresponding values for `O=C(/C=C/c1ccncc1)c1ccc(OCc2cn(Cc3ccccc3)nn2)cc1` are 26.1 µM, 7.43 µM and 11.4 µM.
Turning to `CN1CCN(c2ccc(/C=C/C(=O)c3ccc(OCc4cn(Cc5ccccc5)nn4)cc3)cc2F)CC1`, the half-maximal inhibitory concentration (IC50) in test [1] stood at 11.6 µM; in test [2], 6.44 µM; in test [3], 5.47 µM.
Consider `Nc1ccc(C(=O)/C=C/c2ccco2)cc1`, for which the IC50 is > 64 µM in test [1], 48.9 µM in test [2] and > 64 µM in test [3].
With `O=C(/C=C/c1ccc(Cl)cc1Cl)c1ccc(OCc2cn(Cc3ccccc3)nn2)cc1`, the half-inhibitory concentration (IC50) in test [1] is > 64 µM; in test [2], 36.4 µM; in test [3], 27.9 µM.
The corresponding values for `O=C(/C=C/c1cccnc1)c1ccc(NCc2cn(Cc3ccc(C(F)(F)F)cc3)nn2)cc1` are 7.19 µM, 7.26 µM and 9.24 µM.
The corresponding values for `COc1cccc(Cn2cc(CNc3ccc(C(=O)/C=C/c4ccc(Cl)cc4)cc3)nn2)c1` are 38.6 µM, 21.2 µM and 34.7 µM.
For `O=C(/C=C/c1cc(F)cc(F)c1)c1ccc(NCc2cn(Cc3ccccc3)nn2)cc1`, in that order: 23.5 µM, 27.3 µM and > 64 µM.
For the compound `O=C(/C=C/c1cccnc1)c1ccc(NCc2cn(Cc3ccccc3C(F)(F)F)nn2)cc1`, the 50% inhibitory concentration (IC50) in test [4] was found to be 54.7 µM; in test [1], 3.15 µM; in test [2], 7.29 µM; in test [3], 6.92 µM.
For the compound `O=C(/C=C/c1cccnc1)c1ccc(NCc2cn(Cc3ccccc3)nn2)cc1`, the IC50 in test [1] worked out at 3.43 µM; in test [2] it was 5.15 µM; in test [3], 4.37 µM.
The corresponding values for `Nc1ccc(C(=O)/C=C/c2cccs2)cc1` are > 64 µM, > 64 µM and > 64 µM.
For `O=C(/C=C/c1cccc(Cl)c1)c1ccc(OCc2cn(Cc3ccccc3)nn2)cc1`, in that order: > 64 µM, 19.6 µM and 24 µM.
`O=C(/C=C/c1ccccc1F)c1ccc(OCc2cn(Cc3ccccc3)nn2)cc1`: the half-inhibitory concentration (IC50) was found to be 50.6 µM in test [1], 28.6 µM in test [2] and 18.4 µM in test [3].
For `COc1cc(OC)c(/C=C/C(=O)c2ccc(NCc3cn(Cc4ccccc4)nn3)cc2)c(OC)c1`, in that order: 6.26 µM, 6.26 µM and 10.4 µM.
For `O=C(/C=C/c1ccc(F)cc1)c1ccc(NCc2cn(Cc3ccccc3)nn2)cc1`, the IC50 in test [1] was determined as 40.2 µM; in test [2], 42.4 µM; in test [3], 38.8 µM.
On to `O=C(/C=C/c1ccncc1)c1ccc(NCc2cn(Cc3ccccc3)nn2)cc1`, for which the values for the 50% inhibitory concentration (IC50) in test [1], in test [2] and in test [3] were 17.1 µM, 5.23 µM and 7.02 µM, respectively.
For `O=C(/C=C/c1ccc([N+](=O)[O-])cc1)c1ccc(OCc2cn(Cc3ccccc3)nn2)cc1`, in that order: 29.8 µM, 11.6 µM and 24.4 µM.
The corresponding values for `COc1ccc(/C=C/C(=O)c2ccc(OCc3cn(Cc4ccccc4)nn3)cc2)c(OC)c1OC` are 37.2 µM, 14.5 µM and 9.35 µM.
On to `COc1ccccc1/C=C/C(=O)c1ccc(OCc2cn(Cc3ccccc3)nn2)cc1`, for which the IC50 in test [1] is > 64 µM; in test [2], 26.7 µM; in test [3] it was 24.8 µM.
For the compound `O=C(/C=C/c1ccc(Cl)cc1)c1ccc(OCc2cn(Cc3ccccc3)nn2)cc1`, the IC50 was 43.2 µM in test [1], 17.5 µM in test [2] and 21 µM in test [3].
